pIC50: −log10 of the molar value. Read-outs that look alike come from different tables or passages of the source.
Molecular target: NR1/NR2A (Homo sapiens (Human), UniProt Q05586+Q12879)
Experiment: FDSS Ca2+ influx inhibition assay in HEK293 cells expressing NR1/NR2A
Format: cell-based
Settings: 3 μM glutamate, 3 μM glycine, 1 mM Ca2+
Procedure, shortened: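 Fluo-8-loaded HEK293 NR1/NR2A cells preincubated 10 min with compound at 10 μM final (0.1% DMSO) in Ca2+/Mg2+-free HBSS with 20 mM HEPES. Stimulated with 3 μM glutamate, 3 μM glycine, 1 mM Ca2+; FDSS recording for 3 min, end/baseline fluorescence ratio compared with MK801.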

[1] = inhibition relative to MK801, read-out: NR2A IC50

Chain of NR1/NR2A (Q12879 23-1464, other chains not shown): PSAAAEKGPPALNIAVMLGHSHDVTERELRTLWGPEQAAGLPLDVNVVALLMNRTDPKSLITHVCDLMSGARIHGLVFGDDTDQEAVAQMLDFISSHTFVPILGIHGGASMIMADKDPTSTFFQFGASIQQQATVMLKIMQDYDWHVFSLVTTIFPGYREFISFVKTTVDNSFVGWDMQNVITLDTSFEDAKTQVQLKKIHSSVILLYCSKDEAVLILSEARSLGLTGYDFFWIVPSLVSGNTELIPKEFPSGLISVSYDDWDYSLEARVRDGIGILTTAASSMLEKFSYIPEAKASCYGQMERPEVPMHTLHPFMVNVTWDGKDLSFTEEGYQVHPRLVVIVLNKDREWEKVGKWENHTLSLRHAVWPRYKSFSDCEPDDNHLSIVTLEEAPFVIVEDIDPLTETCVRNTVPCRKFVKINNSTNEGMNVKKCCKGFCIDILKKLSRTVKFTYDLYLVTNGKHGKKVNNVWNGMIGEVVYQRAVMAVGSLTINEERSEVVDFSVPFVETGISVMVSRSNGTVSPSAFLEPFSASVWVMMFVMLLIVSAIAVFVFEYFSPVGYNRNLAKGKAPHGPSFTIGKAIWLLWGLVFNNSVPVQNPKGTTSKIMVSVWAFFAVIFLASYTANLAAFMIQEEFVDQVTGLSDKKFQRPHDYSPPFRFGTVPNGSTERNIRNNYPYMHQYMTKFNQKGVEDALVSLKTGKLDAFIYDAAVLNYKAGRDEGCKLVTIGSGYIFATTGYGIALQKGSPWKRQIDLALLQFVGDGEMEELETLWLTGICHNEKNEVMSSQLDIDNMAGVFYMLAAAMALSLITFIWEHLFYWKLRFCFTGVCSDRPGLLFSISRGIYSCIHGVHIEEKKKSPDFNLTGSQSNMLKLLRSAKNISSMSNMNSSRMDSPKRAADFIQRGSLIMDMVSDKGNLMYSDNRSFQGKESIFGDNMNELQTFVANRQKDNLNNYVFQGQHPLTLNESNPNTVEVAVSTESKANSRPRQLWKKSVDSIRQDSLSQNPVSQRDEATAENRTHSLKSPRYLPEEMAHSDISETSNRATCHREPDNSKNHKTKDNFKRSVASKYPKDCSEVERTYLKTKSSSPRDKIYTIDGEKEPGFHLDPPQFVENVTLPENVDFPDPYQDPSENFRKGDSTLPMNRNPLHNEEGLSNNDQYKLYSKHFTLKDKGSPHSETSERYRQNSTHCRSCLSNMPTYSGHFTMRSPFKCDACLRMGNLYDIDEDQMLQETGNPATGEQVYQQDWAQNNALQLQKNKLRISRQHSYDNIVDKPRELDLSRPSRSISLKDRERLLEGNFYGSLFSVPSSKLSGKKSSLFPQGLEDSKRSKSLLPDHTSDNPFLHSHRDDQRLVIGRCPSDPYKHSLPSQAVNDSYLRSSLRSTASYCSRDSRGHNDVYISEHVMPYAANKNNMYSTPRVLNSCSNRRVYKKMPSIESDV

| SMILES | pIC50 [1] | pIC50 (read-out: Binned Activity) |
| --- | --- | --- |
| O=C(NCc1cccs1)c1ccc(CNS(=O)(=O)c2ccc(F)c(Cl)c2)nn1 [6-(3-chloro-4-fluorobenzenesulfon-amidomethyl)-N-(thiophen-2-ylmethyl)pyridazine-3-carboxamide] | 5.00 | < 5.00 |
| CC(NC(=O)c1ccc(CNS(=O)(=O)c2ccc(F)c(Cl)c2)nn1)c1ccco1 (stereo not drawn) [6-(3-chloro-4-fluorobenzenesulfon-amidomethyl)-N-[1-(furan-2-yl)ethyl]pyridazine-3-carboxamide] | 5.00 | < 5.00 |
| CC(NC(=O)c1ccc(CNS(=O)(=O)c2ccc(F)c(Cl)c2)nn1)c1cccs1 (stereo not drawn) [6-(3-chloro-4-fluorobenzenesulfon-amidomethyl)-N-[1-(thiophen-2-yl)ethyl]pyridazine-3-carboxamide] | 5.00 | < 5.00 |
| COc1ccc(CCNC(=O)c2ccc(CNS(=O)(=O)c3ccc(F)c(Cl)c3)nn2)cc1 [6-(3-chloro-4-fluorobenzenesulfon-amidomethyl)-N-[2-(4-methoxyphenyl)ethyl] pyridazine-3-carboxamide] | 5.00 | < 5.00 |
| CN(C)CCNC(=O)c1ccc(CNS(=O)(=O)c2ccc(F)c(Cl)c2)nc1 [6-(3-chloro-4-fluorobenzenesulfon-amidomethyl)-N-[2-(dimethylamino)ethyl] pyridine-3-carboxamide] | 5.00 | < 5.00 |
| CN(C)CCCNC(=O)c1ccc(CNS(=O)(=O)c2ccc(F)c(Cl)c2)nc1 [6-(3-chloro-4-fluorobenzenesulfon-amidomethyl)-N-[3-(dimethylamino)propyl] pyridine-3-carboxamide] | 5.00 | < 5.00 |
| CN(C)CCCCNC(=O)c1ccc(CNS(=O)(=O)c2ccc(F)c(Cl)c2)nc1 [6-(3-chloro-4-fluorobenzenesulfon-amidomethyl)-N-[4-(dimethylamino)butyl] pyridine-3-carboxamide] | 5.00 | < 5.00 |
| Cc1cc(CNC(=O)c2ccc(CNS(=O)(=O)c3ccc(F)c(Cl)c3)nc2)n(C)n1 [6-(3-chloro-4-fluorobenzenesulfon-amidomethyl)-N-[(1,3-dimethyl-1H-pyrazol-5-yl)methyl]pyridine-3-carboxamide] | 5.00 | < 5.00 |
| Cc1ccc(CNC(=O)c2ccc(CNS(=O)(=O)c3ccc(F)c(Cl)c3)nc2)n1C [6-(3-chloro-4-fluorobenzenesulfon-amidomethyl)-N-[(1,5-dimethyl-1H-pyrrol-2-yl)methyl]pyridine-3-carboxamide] | 5.00 | < 5.00 |
| Cn1cnc(CNC(=O)c2ccc(CNS(=O)(=O)c3ccc(F)c(Cl)c3)nn2)c1 [6-(3-chloro-4-fluorobenzenesulfon-amidomethyl)-N-[(1-methyl-1H-imidazol-4-yl)methyl]pyridazine-3-carboxamide] | 5.00 | < 5.00 |
| Cn1cnc(CNC(=O)c2ccc(CNS(=O)(=O)c3ccc(F)c(Cl)c3)nc2)c1 [6-(3-chloro-4-fluorobenzenesulfon-amidomethyl)-N-[(1-methyl-1H-imidazol-4-yl)methyl]pyridine-3-carboxamide] | 5.00 | < 5.00 |
| Cn1nccc1CNC(=O)c1ccc(CNS(=O)(=O)c2ccc(F)c(Cl)c2)nc1 [6-(3-chloro-4-fluorobenzenesulfon-amidomethyl)-N-[(1-methyl-1H-pyrazol-5-yl)methyl]pyridine-3-carboxamide] | 5.00 | < 5.00 |
| Cn1cccc1CNC(=O)c1ccc(CNS(=O)(=O)c2ccc(F)c(Cl)c2)nc1 [6-(3-chloro-4-fluorobenzenesulfon-amidomethyl)-N-[(1-methyl-1H-pyrrol-2-yl)methyl]pyridine-3-carboxamide] | 5.00 | < 5.00 |
| C[C@@H](NC(=O)c1ccc(CNS(=O)(=O)c2ccc(F)c(Cl)c2)nn1)c1cncs1 [6-(3-chloro-4-fluorobenzenesulfon-amidomethyl)-N-[(1R)-1-(1,3-thiazol-5-yl)ethyl]pyridazine-3-carboxamide] | 5.00 | < 5.00 |
| C[C@@H](NC(=O)c1ccc(CNS(=O)(=O)c2ccc(F)c(Cl)c2)nc1)c1cncs1 [6-(3-chloro-4-fluorobenzenesulfon-amidomethyl)-N-[(1R)-1-(1,3-thiazol-5-yl)ethyl]pyridine-3-carboxamide] | 5.00 | – |
| COc1ccccc1CNC(=O)c1ccc(CNS(=O)(=O)c2ccc(F)c(Cl)c2)nc1 [6-(3-chloro-4-fluorobenzenesulfon-amidomethyl)-N-[(2-methoxyphenyl)methyl] pyridine-3-carboxamide] | 5.00 | < 5.00 |
| COc1cc(CNC(=O)c2ccc(CNS(=O)(=O)c3ccc(F)c(Cl)c3)nc2)ccn1 [6-(3-chloro-4-fluorobenzenesulfon-amidomethyl)-N-[(2-methoxypyridin-4-yl)methyl]pyridine-3-carboxamide] | 5.00 | < 5.00 |
| Cc1nc(CNC(=O)c2ccc(CNS(=O)(=O)c3ccc(F)c(Cl)c3)nn2)cs1 [6-(3-chloro-4-fluorobenzenesulfon-amidomethyl)-N-[(2-methyl-1,3-thiazol-4-yl)methyl]pyridazine-3-carboxamide] | 5.00 | < 5.00 |
| Cc1nc(CNC(=O)c2ccc(CNS(=O)(=O)c3ccc(F)c(Cl)c3)nc2)cs1 [6-(3-chloro-4-fluorobenzenesulfon-amidomethyl)-N-[(2-methyl-1,3-thiazol-4-yl)methyl]pyridine-3-carboxamide] | 5.00 | < 5.00 |

Other lines, results leading:

| pIC50 [1] | pIC50 (read-out: Binned Activity) | SMILES |
| --- | --- | --- |
| 5.00 | < 5.00 | O=C(NCc1ccoc1)c1ccc(CNS(=O)(=O)c2ccc(F)c(Cl)c2)nn1 [6-(3-chloro-4-fluorobenzenesulfon-amidomethyl)-N-(furan-3-ylmethyl)pyridazine-3-carboxamide] |
| 5.00 | < 5.00 | O=C(NCc1cnccn1)c1ccc(CNS(=O)(=O)c2ccc(F)c(Cl)c2)nn1 [6-(3-chloro-4-fluorobenzenesulfon-amidomethyl)-N-(pyrazin-2-ylmethyl)pyridazine-3-carboxamide] |
| – | 6.00 to 7.00 | O=C(NCc1cnccn1)c1ccc(CNS(=O)(=O)c2ccc(F)c(Cl)c2)nc1 [6-(3-chloro-4-fluorobenzenesulfon-amidomethyl)-N-(pyrazin-2-ylmethyl)pyridine-3-carboxamide] |
| 5.00 | < 5.00 | O=C(NCc1ccccn1)c1ccc(CNS(=O)(=O)c2ccc(F)c(Cl)c2)nn1 [6-(3-chloro-4-fluorobenzenesulfon-amidomethyl)-N-(pyridin-2-ylmethyl)pyridazine-3-carboxamide] |
| 5.00 | < 5.00 | O=C(NCc1ccccn1)c1ccc(CNS(=O)(=O)c2ccc(F)c(Cl)c2)nc1 [6-(3-chloro-4-fluorobenzenesulfon-amidomethyl)-N-(pyridin-2-ylmethyl)pyridine-3-carboxamide] |
| 5.00 | < 5.00 | O=C(NCc1cccnc1)c1ccc(CNS(=O)(=O)c2ccc(F)c(Cl)c2)nn1 [6-(3-chloro-4-fluorobenzenesulfon-amidomethyl)-N-(pyridin-3-ylmethyl)pyridazine-3-carboxamide] |
| – | < 5.00 | O=C(NCc1cccnc1)c1ccc(CNS(=O)(=O)c2ccc(F)c(Cl)c2)nc1 [6-(3-chloro-4-fluorobenzenesulfon-amidomethyl)-N-(pyridin-3-ylmethyl)pyridine-3-carboxamide] |
| 5.00 | < 5.00 | O=C(NCc1ccncc1)c1ccc(CNS(=O)(=O)c2ccc(F)c(Cl)c2)nn1 [6-(3-chloro-4-fluorobenzenesulfon-amidomethyl)-N-(pyridin-4-ylmethyl)pyridazine-3-carboxamide] |
| 5.00 | < 5.00 | O=C(NCc1ccncc1)c1ccc(CNS(=O)(=O)c2ccc(F)c(Cl)c2)nc1 [6-(3-chloro-4-fluorobenzenesulfon-amidomethyl)-N-(pyridin-4-ylmethyl)pyridine-3-carboxamide] |
| 5.00 | < 5.00 | O=C(NCc1ncccn1)c1ccc(CNS(=O)(=O)c2ccc(F)c(Cl)c2)nn1 [6-(3-chloro-4-fluorobenzenesulfon-amidomethyl)-N-(pyrimidin-2-ylmethyl)pyridazine-3-carboxamide] |
| 5.00 | < 5.00 | O=C(NCc1ncccn1)c1ccc(CNS(=O)(=O)c2ccc(F)c(Cl)c2)nc1 [6-(3-chloro-4-fluorobenzenesulfon-amidomethyl)-N-(pyrimidin-2-ylmethyl)pyridine-3-carboxamide] |
| 5.00 | < 5.00 | O=C(NCc1ccncn1)c1ccc(CNS(=O)(=O)c2ccc(F)c(Cl)c2)nn1 [6-(3-chloro-4-fluorobenzenesulfon-amidomethyl)-N-(pyrimidin-4-ylmethyl)pyridazine-3-carboxamide] |
| 5.00 | < 5.00 | O=C(NCc1ccncn1)c1ccc(CNS(=O)(=O)c2ccc(F)c(Cl)c2)nc1 [6-(3-chloro-4-fluorobenzenesulfon-amidomethyl)-N-(pyrimidin-4-ylmethyl)pyridine-3-carboxamide] |
| 5.00 | < 5.00 | O=C(NCc1cncnc1)c1ccc(CNS(=O)(=O)c2ccc(F)c(Cl)c2)nn1 [6-(3-chloro-4-fluorobenzenesulfon-amidomethyl)-N-(pyrimidin-5-ylmethyl)pyridazine-3-carboxamide] |
| 5.00 | < 5.00 | O=C(NCc1cncnc1)c1ccc(CNS(=O)(=O)c2ccc(F)c(Cl)c2)nc1 [6-(3-chloro-4-fluorobenzenesulfon-amidomethyl)-N-(pyrimidin-5-ylmethyl)pyridine-3-carboxamide] |
| – | 6.00 to 7.00 | Cn1ccnc1CNC(=O)c1ccc(CNS(=O)(=O)c2ccc(F)c(Cl)c2)nc1 [6-(3-chloro-4-fluorobenzenesulfon-amidomethyl)-N-[(1-methyl-1H-imidazol-2-yl)methyl]pyridine-3-carboxamide] |
